Reference: article PMC11233931, “Remodeling tumor‐associated macrophage for anti‐cancer effects by rational design of irreversible inhibition of mitogen‐activated protein kinase‐activated protein kinase 2” (MedComm, 2024)

How the values were obtained:
Assay in all cases: Eurofins kinase selectivity profile against 380 other human recombinant kinases (Table S2)
Type in all cases: biochemical
[1] = target: T1, 380 human recombinant protein kinases (Homo sapiens, UniProt P43403); conditions: ZAP-70(h), read-out: Inhibition rate (%)
T1 construct: purchased Eurofins (Celle Lévescault)
T1 sequence (P43403 1-619): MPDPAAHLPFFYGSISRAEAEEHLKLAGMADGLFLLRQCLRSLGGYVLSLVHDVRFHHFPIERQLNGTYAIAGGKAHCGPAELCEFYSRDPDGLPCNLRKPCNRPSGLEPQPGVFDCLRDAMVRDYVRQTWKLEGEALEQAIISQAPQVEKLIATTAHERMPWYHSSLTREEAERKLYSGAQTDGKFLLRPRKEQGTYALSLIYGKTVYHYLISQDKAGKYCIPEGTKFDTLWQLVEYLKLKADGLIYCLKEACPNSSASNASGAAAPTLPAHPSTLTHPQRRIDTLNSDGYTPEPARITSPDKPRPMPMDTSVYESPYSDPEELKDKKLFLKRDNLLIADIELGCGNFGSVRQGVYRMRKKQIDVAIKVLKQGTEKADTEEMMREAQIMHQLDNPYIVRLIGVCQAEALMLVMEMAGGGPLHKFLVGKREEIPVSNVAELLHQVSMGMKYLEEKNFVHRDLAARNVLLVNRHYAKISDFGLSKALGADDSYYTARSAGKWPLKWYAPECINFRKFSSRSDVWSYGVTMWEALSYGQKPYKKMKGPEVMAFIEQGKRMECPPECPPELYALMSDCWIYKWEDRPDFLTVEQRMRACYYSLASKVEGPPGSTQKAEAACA
Procedure, shortened: (§1)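 To gauge specificity for MK2, the compound is profiled externally at various concentrations on recombinant human kinases, 380 in total.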

[2] = target: T2, 380 human recombinant protein kinases (Homo sapiens, UniProt P42336, H1047R); conditions: PI3 Kinase (p110α(H1047R)/p85α)(h), read-out: Inhibition rate (%)
T2 construct: purchased Eurofins (Celle Lévescault)
Procedure, shortened: as §1

[3] = target: T3, 380 human recombinant protein kinases (Homo sapiens, UniProt Q9BQI3); conditions: HRI(h), read-out: Inhibition rate
T3 construct: purchased Eurofins (Celle Lévescault)
Procedure, shortened: as §1

[4] = target: T4, 380 human recombinant protein kinases (Homo sapiens, UniProt P00519); conditions: Abl(h), read-out: Inhibition rate
T4 construct: purchased Eurofins (Celle Lévescault)
Procedure, shortened: as §1

[5] = target: T5, 380 human recombinant protein kinases (Homo sapiens, UniProt Q9Y6E0); conditions: MST3(h), read-out: Inhibition rate
T5 construct: purchased Eurofins (Celle Lévescault)
Procedure, shortened: as §1

[6] = target: T6, 380 human recombinant protein kinases (Homo sapiens, UniProt Q96PY6); conditions: NEK1(h), read-out: Inhibition rate
T6 construct: purchased Eurofins (Celle Lévescault)
T6 sequence (Q96PY6 1-1258): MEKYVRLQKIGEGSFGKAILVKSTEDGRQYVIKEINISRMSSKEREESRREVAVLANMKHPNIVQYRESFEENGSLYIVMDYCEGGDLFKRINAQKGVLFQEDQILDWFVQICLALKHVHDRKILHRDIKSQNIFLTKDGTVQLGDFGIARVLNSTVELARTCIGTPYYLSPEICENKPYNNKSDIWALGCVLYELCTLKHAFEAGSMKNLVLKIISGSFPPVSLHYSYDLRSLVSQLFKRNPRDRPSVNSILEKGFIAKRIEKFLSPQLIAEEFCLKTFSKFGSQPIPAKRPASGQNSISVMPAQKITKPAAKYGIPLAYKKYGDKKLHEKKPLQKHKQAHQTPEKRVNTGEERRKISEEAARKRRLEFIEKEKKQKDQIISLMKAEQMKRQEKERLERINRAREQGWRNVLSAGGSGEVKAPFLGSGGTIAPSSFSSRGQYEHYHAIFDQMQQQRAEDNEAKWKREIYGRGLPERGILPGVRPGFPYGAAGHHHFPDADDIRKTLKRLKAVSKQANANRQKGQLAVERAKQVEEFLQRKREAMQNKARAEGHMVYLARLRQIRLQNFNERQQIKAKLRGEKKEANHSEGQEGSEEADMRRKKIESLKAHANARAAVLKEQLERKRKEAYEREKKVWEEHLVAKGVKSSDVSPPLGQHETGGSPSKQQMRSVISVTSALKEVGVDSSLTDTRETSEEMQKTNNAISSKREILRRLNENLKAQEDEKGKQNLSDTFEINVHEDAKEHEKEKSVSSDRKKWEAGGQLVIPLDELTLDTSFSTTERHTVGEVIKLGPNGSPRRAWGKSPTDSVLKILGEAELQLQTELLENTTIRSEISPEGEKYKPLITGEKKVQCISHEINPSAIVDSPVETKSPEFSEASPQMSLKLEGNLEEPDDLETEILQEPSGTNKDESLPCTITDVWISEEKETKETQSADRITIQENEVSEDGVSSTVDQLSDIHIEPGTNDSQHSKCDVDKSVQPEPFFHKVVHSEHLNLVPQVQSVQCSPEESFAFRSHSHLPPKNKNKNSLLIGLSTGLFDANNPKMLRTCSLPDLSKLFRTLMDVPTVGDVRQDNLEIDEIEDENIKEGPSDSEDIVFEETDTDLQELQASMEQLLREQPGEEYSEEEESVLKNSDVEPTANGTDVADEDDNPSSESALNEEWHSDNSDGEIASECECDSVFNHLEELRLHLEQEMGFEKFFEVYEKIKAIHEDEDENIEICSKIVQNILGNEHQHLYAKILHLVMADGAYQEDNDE
Procedure, shortened: as §1

[7] = target: T7, 380 human recombinant protein kinases (Homo sapiens, UniProt P24723); conditions: PKCη(h), read-out: Inhibition rate
T7 construct: purchased Eurofins (Celle Lévescault)
Procedure, shortened: as §1

[8] = target: T8, 380 human recombinant protein kinases (Homo sapiens, UniProt P0C1S8); conditions: Wee1B(h), read-out: Inhibition rate (%)
T8 construct: purchased Eurofins (Celle Lévescault)
Procedure, shortened: as §1

T7 sequence (P24723 whole entry): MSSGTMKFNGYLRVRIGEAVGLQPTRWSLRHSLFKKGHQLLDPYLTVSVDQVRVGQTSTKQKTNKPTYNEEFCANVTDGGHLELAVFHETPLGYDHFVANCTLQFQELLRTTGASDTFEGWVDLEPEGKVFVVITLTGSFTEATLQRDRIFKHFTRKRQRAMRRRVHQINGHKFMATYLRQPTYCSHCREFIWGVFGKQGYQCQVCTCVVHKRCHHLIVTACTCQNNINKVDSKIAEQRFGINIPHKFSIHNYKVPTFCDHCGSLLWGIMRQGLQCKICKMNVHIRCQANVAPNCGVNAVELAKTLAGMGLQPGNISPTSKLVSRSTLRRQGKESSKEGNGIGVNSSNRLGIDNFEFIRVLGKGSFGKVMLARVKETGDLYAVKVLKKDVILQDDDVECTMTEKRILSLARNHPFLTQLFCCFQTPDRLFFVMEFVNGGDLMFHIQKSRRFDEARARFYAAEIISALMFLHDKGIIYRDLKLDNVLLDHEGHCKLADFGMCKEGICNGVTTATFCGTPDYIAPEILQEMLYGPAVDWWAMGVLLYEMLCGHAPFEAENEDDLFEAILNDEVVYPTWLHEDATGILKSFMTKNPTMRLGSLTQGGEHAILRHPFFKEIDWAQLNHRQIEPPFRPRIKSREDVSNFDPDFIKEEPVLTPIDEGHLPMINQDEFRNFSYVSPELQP
T2 sequence (P42336 whole entry H1047R): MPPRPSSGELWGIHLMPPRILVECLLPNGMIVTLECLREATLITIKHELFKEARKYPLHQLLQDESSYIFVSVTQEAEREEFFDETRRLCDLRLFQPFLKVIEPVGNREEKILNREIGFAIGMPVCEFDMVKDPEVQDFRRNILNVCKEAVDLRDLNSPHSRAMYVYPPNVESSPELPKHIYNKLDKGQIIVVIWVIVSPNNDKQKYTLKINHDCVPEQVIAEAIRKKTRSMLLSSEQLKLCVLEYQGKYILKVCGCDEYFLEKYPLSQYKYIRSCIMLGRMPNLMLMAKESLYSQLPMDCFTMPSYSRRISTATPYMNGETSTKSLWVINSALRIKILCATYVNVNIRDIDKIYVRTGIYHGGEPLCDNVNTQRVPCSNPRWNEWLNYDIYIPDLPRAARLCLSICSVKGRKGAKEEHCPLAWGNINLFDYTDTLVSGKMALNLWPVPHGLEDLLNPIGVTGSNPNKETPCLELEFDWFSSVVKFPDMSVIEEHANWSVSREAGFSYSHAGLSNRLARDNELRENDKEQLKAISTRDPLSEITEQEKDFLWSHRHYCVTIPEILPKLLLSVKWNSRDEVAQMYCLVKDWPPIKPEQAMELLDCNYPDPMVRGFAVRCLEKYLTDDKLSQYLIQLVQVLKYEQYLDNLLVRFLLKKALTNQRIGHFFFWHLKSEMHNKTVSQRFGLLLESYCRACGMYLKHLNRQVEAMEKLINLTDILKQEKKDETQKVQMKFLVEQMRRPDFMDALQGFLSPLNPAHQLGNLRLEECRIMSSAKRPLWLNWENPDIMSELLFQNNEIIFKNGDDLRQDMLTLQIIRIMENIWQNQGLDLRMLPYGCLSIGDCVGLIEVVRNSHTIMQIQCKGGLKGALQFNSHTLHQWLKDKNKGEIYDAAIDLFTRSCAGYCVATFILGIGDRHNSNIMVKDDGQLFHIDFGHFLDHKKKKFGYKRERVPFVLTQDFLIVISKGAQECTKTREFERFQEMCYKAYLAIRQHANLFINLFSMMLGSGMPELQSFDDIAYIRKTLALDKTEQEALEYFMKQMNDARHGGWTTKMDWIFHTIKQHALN
T5 sequence (Q9Y6E0 whole entry): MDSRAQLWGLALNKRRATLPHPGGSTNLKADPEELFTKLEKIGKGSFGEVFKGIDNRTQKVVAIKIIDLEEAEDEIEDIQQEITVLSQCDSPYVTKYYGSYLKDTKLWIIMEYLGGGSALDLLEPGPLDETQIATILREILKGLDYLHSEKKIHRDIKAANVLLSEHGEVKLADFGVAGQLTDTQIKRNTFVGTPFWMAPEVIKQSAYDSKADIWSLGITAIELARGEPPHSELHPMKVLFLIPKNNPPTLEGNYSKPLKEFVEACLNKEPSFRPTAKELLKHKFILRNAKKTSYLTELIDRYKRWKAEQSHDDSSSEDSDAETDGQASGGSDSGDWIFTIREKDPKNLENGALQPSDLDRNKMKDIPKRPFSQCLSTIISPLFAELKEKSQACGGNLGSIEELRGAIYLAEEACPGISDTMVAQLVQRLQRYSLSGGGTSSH
T3 sequence (Q9BQI3 whole entry): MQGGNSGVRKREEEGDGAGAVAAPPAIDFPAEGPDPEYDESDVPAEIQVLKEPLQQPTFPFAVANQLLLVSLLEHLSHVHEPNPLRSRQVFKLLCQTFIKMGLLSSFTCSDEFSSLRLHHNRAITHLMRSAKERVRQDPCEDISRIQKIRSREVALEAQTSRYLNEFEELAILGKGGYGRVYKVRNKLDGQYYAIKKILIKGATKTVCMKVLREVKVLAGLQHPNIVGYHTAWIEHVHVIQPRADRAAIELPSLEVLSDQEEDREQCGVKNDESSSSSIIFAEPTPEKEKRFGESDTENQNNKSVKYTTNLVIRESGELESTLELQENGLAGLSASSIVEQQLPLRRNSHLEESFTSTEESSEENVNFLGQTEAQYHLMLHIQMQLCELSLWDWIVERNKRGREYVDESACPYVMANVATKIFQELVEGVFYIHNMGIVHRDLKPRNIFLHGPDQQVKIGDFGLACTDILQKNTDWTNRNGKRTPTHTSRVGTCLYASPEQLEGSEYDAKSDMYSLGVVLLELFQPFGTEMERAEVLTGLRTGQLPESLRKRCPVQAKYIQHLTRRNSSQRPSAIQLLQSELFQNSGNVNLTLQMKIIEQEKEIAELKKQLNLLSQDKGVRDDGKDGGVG
T8 sequence (P0C1S8 whole entry): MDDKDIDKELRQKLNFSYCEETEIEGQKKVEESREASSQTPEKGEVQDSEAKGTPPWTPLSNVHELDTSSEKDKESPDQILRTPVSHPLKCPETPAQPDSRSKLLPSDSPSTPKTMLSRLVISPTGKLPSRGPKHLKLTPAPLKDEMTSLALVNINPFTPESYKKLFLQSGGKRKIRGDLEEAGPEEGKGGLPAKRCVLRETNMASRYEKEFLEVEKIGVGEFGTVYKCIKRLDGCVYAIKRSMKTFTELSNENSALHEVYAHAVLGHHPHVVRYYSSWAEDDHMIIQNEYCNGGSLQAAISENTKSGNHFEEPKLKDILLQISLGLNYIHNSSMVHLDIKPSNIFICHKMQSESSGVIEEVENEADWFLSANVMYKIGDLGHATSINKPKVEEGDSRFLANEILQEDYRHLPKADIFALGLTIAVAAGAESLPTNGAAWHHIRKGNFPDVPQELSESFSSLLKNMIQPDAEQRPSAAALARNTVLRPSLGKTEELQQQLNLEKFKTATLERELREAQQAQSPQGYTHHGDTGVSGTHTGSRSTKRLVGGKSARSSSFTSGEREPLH
T4 sequence (P00519 whole entry): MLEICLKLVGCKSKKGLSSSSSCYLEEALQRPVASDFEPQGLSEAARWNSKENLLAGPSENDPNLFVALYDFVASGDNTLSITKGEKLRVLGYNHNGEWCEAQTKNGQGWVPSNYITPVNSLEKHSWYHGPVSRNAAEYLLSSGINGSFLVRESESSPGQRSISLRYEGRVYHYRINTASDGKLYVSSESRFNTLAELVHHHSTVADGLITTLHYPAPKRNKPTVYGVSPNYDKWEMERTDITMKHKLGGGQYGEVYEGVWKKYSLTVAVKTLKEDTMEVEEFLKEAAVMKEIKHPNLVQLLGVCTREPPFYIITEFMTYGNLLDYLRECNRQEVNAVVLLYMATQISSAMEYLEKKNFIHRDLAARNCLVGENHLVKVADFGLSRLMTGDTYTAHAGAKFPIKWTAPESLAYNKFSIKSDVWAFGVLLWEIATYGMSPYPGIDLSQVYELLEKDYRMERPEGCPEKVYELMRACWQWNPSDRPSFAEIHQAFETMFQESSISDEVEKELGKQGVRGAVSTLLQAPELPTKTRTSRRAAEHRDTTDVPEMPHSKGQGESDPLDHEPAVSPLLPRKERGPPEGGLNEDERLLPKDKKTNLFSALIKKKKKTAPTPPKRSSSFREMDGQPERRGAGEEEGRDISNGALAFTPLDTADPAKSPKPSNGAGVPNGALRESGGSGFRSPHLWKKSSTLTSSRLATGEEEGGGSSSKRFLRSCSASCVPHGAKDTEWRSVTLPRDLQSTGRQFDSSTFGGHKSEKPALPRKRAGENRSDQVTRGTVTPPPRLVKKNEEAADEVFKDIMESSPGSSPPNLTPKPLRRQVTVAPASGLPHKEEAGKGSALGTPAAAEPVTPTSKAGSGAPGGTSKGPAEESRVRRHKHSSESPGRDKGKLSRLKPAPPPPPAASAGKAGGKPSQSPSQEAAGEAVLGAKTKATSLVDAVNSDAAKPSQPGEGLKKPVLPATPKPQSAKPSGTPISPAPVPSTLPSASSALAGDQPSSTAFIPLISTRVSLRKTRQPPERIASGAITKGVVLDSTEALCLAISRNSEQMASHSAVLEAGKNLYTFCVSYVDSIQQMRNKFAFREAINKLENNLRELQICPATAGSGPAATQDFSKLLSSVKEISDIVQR

Question: How did the inhibition at 0.01 µM ([1]; 10 nM) turn out when `C=CC(=O)Nc1cc(-c2cc(-c3cc4c([nH]3)CCNC4=O)ccn2)ccc1OC(F)(F)F` [compound 11] was run?
Answer: 8%

Question: What about the inhibition at 0.1 µM ([1]; 100 nM) of the same compound?
Answer: 0%

Question: And the inhibition at 1 µM ([1]; 1000 nM)?
Answer: -13%

Question: And the inhibition at 0.01 µM ([2]; 10 nM)?
Answer: 0%

Question: And the inhibition at 0.1 µM ([2]; 100 nM)?
Answer: 0%

Question: And the inhibition at 1 µM ([2]; 1000 nM)?
Answer: 2%

Question: And the inhibition at 0.01 µM ([3]; 10 nM)?
Answer: -3%

Question: What about the inhibition at 0.1 µM ([3]; 100 nM) of the same compound?
Answer: 4%

Question: And the inhibition at 1 µM ([3]; 1000 nM)?
Answer: 7%

Question: What about the inhibition at 0.01 µM ([4]; 10 nM) of the same compound?
Answer: -9%

Question: And the inhibition at 0.1 µM ([4]; 100 nM)?
Answer: -5%

Question: And the inhibition at 1 µM ([4]; 1000 nM)?
Answer: 9%

Question: What about the inhibition at 0.01 µM ([5]; 10 nM) of the same compound?
Answer: -6%

Question: And the inhibition at 0.1 µM ([5]; 100 nM)?
Answer: 2%

Question: What about the inhibition at 1 µM ([5]; 1000 nM) of the same compound?
Answer: 2%

Question: What about the inhibition at 0.01 µM ([6]; 10 nM) of the same compound?
Answer: -3%

Question: And the inhibition at 0.1 µM ([6]; 100 nM)?
Answer: -1%

Question: What about the inhibition at 1 µM ([6]; 1000 nM) of the same compound?
Answer: 11%

Question: And the inhibition at 0.01 µM ([7]; 10 nM)?
Answer: 1%

Question: What about the inhibition at 0.1 µM ([7]; 100 nM) of the same compound?
Answer: 10%

Question: What about the inhibition at 1 µM ([7]; 1000 nM) of the same compound?
Answer: 9%

Question: And the inhibition at 0.01 µM ([8]; 10 nM)?
Answer: -2%

Question: And the inhibition at 0.1 µM ([8]; 100 nM)?
Answer: -4%

Question: And the inhibition at 1 µM ([8]; 1000 nM)?
Answer: 3%
